Measured values taken from patent US10059712B2, “N-benzyl tryptanthrin derivative, and preparation method and application thereof” (priority 2013, dated 2018).
Like-named read-outs stand apart in the source and are kept apart here.

Experiments:
Lewis lung carcinoma [1] = system: Lewis lung carcinoma
Lewis lung carcinoma [2] = test: LLC Lewis tumor model, prophylactic administration; details: for tumor inhibition rate, tumor volume basis / tumor inhibition rate, tumor weight basis: prophylactic administration; for tumor formation, days after the start of administration: prophylactic administration via gavage, test compound: high dosage group
IDO [3] = target: T1, IDO (Homo sapiens, UniProt P14902); test: Measurement of median effective inhibition concentration IC50 (IDO enzyme); format: biochemical; parameters: made in house; host or cells: Escherichia coli
T1 sequence (P14902 whole entry): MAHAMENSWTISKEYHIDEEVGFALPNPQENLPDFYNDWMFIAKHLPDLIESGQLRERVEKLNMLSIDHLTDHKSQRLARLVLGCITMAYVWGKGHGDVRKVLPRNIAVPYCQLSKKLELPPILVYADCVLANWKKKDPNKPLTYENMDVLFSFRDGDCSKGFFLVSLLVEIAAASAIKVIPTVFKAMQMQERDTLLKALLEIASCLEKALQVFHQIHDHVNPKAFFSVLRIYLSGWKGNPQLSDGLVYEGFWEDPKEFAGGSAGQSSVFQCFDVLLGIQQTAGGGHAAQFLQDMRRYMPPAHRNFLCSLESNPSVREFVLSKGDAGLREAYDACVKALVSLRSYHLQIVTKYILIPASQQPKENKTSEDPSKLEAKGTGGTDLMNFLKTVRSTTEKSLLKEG
Protocol: (§1) The IDO inhibitory activity with respect to each compound was detected using the methods described in the literature. 50 mM potassium phosphate buffer (pH 6.5), 40 mM vitamin C, 400 μg/ml catalase, 20 μM methylene blue and IDO enzyme were mixed together in a 96-well plate. The substrate L-tryptophan and the sample to be tested were then added to the aforementioned mixture. The reaction was carried out for 60 minutes at 37° C., after which the reaction was terminated by adding 30% (w/v) trichloroacetic acid. The 96-well plate was heated to 65° C. for 15 minutes to complete the conversion from formylkynurenine to kynurenine, and centrifugation was performed with 6000 g for 5 minutes. 100 μl of supernatant was removed from each well and transferred to a new 96-well plate, after which an acetic acid solution of 2% (w/v) p-(dimethylamino)benzaldehyde was added, and the yellow color produced as a result of the resulting reaction with kynurenine was observable at 490 nm in a microplate reader; the experimental results are shown in Table 1.
50 mM potassium phosphate buffer (pH 6.5), 40 mM vitamin C, 400 μg/ml catalase, 20 μM methylene blue, […] of the substrate L-tryptophan and inhibitor were mixed together.

T lymphocytes = test: T-cell proliferation assay (spleen lymphocytes + LLC cells, WST-1); format: cell-based, mice; details: 50 μM IDO inhibitor, 72 hours
Protocol: Isolation of Spleen Lymphocytes (Performed in Accordance with the Lymphocyte Separation Medium Instructions):
1. Two mice were sacrificed by cervical dislocation and spleens were removed on a sterile table and placed into a 6 cm plate containing an RP1640 culture medium for later use.
2. A 100 μm mesh was placed in a 50 mL centrifuge tube and each spleen was cut into smaller pieces using scissors, milled on top of the sieve and a small amount of RP1640 was added for preservation purposes.
3. A lymphocyte separation medium equivalent to twice the volume of the resulting slurry was then added.
4. Centrifugation was performed at 800 g for 20 minutes, after which three distinct layers were visible, with the middle layer showing a slight yellowish tint.
5. Cells in the middle layer were removed and an RP1640 culture medium was added to perform a reverse wash. Cells were then centrifuged at 250 g for 10 minutes at room temperature, and the cells were collected.
6. The culture medium was aspirated off and cells were resuspended in the RP1640 medium, after which a cell count was performed.
LLC (Lewis Lung Carcinoma) Cell Treatment:
1. A medium (high glucose DMEM, 10% FBS) was aspirated off and washing was performed 1-2 times using PBS;
3. The trypsin was aspirated off and a culture medium was added, after which cells were pipetted off and transferred to a 1.5 mL centrifuge tube;
4. Centrifugation followed by aspiration of the supernatant was performed, and cells were resuspended in 1 mL of the DMEM culture medium;
5. Mitomycin C (final concentration: 25 μg/mL) was added, the mixture was pipetted up and down until homogeneous, and the mixture was placed in a 37° C. bath for 30 minutes;
6. Washing was performed 3 times with RP1640, the cells were counted and the sample was set aside.
1. Treated LLC cells (2×10^4 cells/well; stimulator cells) and spleen lymphocytes (10^5 cells/well; reaction cells) were added to a 96-well plate, after which RP1640 (10% FBS was added to bring the volume to 200 μL;
3. A WST-1 reagent kit was used to measure T-cell proliferation, and absorbance values at a wavelength of 450 nm were measured using a plate reader;
4. […] Experimental Results

IDO [4] = target: T1, IDO; test: Determining inhibitor type and Ki value measurement (Dixon plot); format: biochemical; parameters: made in house; host or cells: Escherichia coli
Protocol: as §1

IDO [5] = target: T1, IDO; test: Measurement of IC50 (cells): HEK 293 cells transfected with pcDNA3.1-hIDO plasmid; format: cell-based; parameters: expressed in transfected cells; host or cells: HEK 293; details: as headed in Table 1, column 3; read-out: IC50 (μM) (Cell)
Protocol: The liposome Lipofectamin 2000 was used to transfect HEK 293 cells with the pcDNA3.1-hIDO plasmid. When measuring the inhibition activity at the cellular level, the HEK293 cell culture medium corresponded to high glucose DMEM, containing 50 U/mL penicillin, 50 U/mL streptomycin and 10% FBS, and culturing was performed at 37° C. under 5% CO2.

[6] = 200 mg/kg via gavage, two weeks, post-inoculation
[7] = high dosage group 150 mg/kg via gavage
[8] = low dosage group 75 mg/kg via gavage

Cn1cc(C[C@H](N)C(=O)O)c2ccccc21 [1-MT, 1-methyl-tryptophan, reference compound]
in vivo Lewis lung carcinoma tumor growth compared to the control group (Lewis lung carcinoma [1]; [6]): significant inhibition
tumor inhibition rate, tumor volume basis (Lewis lung carcinoma [1]; [6]): 15.68%
tumor inhibition rate, tumor volume basis (Lewis lung carcinoma [2]; [7]): 32.35%
tumor inhibition rate, tumor weight basis (Lewis lung carcinoma [2]; [7]): 28.2%
tumor inhibition rate, tumor volume basis (Lewis lung carcinoma [2]; [8]): 27.00%
tumor formation, days after the start of administration (Lewis lung carcinoma [2]): 13 days

Cc1ccc2nc3n(c(=O)c2c1)-c1ccccc1C3=O [Comparative Example, 2-methyl-indole[2,1-b]quinazoline-6,12-dione, reference compound]
IC50 (IDO [3]; method of Embodiment Example 9-11, read-out: IDO inhibitory activity in vitro IC50): 997 µM

CN(C)Cc1ccc2nc3n(c(=O)c2c1)-c1ccc(F)cc1C3=O [Embodiment Example 1, 2-((dimethylamino)methyl)-8-fluoro-indolo[2,1-b]quinazoline-6,12-dione]
T-Cell Proliferation Rate (T lymphocytes): 4.88%

CC(C)(C)OC(=O)N1CCN(Cc2ccc3nc4n(c(=O)c3c2)-c2ccc(F)cc2C4=O)CC1 [Embodiment Example 2, 4-((8-fluoro-6,12-dioxo-6,12-dihydroxy-indolo[2,1-b]quinolin-2-yl)methyl)piperazine-1-carboxylic acid tert-butyl ester]
T-Cell Proliferation Rate (T lymphocytes): 38.48%

O=C1c2cc(F)ccc2-n2c1nc1ccc(CN3CCNCC3)cc1c2=O [Embodiment Example 3, 8-fluoro-2-(piperazin-1-ylmethyl)indolo[2,1-b]quinazoline-6,12-dione]
T-Cell Proliferation Rate (T lymphocytes): 40.64%

CN1CCN(Cc2ccc3nc4n(c(=O)c3c2)-c2ccc(F)cc2C4=O)CC1 [Embodiment Example 4]
T-Cell Proliferation Rate (T lymphocytes): 41.24%
tumor inhibition rate, tumor volume basis (Lewis lung carcinoma [1]; [6]): 23.38%
tumor inhibition rate, tumor volume basis (Lewis lung carcinoma [2]; [7]): 62.15%
tumor inhibition rate, tumor weight basis (Lewis lung carcinoma [2]; [7]): 57.8%
tumor inhibition rate, tumor volume basis (Lewis lung carcinoma [2]; [8]): 46.62%
tumor formation, days after the start of administration (Lewis lung carcinoma [2]): > 20 days

O=C1c2cc(F)ccc2-n2c1nc1ccc(CN3CCOCC3)cc1c2=O [Embodiment Example 5, 8-fluoro-2-((morpholino-1-yl)methyl)indolo[2,1-b]quinazoline-6,12-dione]
T-Cell Proliferation Rate (T lymphocytes): 50.27%

CN1CCN(Cc2ccc3nc4n(c(=O)c3c2)-c2ccccc2C4=O)CC1 [Embodiment Example 6, 2-((4-methyl-piperazin-1-yl)methyl)indolo[2,1-b]quinazoline-6,12-dione]
IC50 (IDO [3]; as headed in Table 1, column 4, read-out: IC50): 0.97 µM
T-Cell Proliferation Rate (T lymphocytes): 39.40%
Inhibition Type (IDO [4]; Dixon plot (1/v-[I])): Anticompetitive
Ki (IDO [4]; plot of S/v-[I], read-out: Ki (μM) (in vitro)): 5.97 µM
IC50 (IDO [5]): 2.52 µM

CC(=O)O[C@H]1C(=O)[C@@]2(C)[C@H]([C@H](OC(=O)c3ccccc3)[C@]3(O)C[C@H](OC(=O)[C@H](O)[C@@H](NC(=O)c4ccccc4)c4ccccc4)C(C)=C1C3(C)C)[C@]1(OC(C)=O)CO[C@@H]1C[C@@H]2O [paclitaxel]
tumor inhibition rate, tumor volume basis (Lewis lung carcinoma [1]; 100 mg/kg intravenous injection once per week, post-inoculation): 51.45%
toxic side effects observed in mice (Lewis lung carcinoma [1]; mouse, in vivo): losing weight, losing their fur and showing less movement in general
